For one test, the system named is hrpA promoter (T3SS). The experiment in a line: hrpA promoter activity assay in DC3000 (GFP, flow cytometry). Format: cell-based, Pseudomonas syringae pv. tomato DC3000. Conditions: DC3000 (phrpA). As for the experimental part: Expression of hrpA was analyzed using a FACS Calibur flow cytometer as previously described (BD Biosciences, CA) (Peng et al. 2006). Wild-type DC3000 carrying the promoter-probe phrpA or pPROBE-NT (vector control) was grown in KB broth overnight and transferred to HIM or HIM supplemented with different compounds as described (Li et al. 2009). The promoter activity of hrpA in DC3000 was monitored by measuring GFP intensity using flow cytometry.
To determine the maximum concentration of TCA that will inhibit hrpA promoter activity without affecting bacterial growth, DC3000 carrying phrpA was cultured in HIM and HIM supplemented with 25 μM, 50 μM, 100 μM, 250 μM, or 500 μM of TCA. Promoter activity was measured at 6 h and 9 h as mentioned above using flow cytometry. Bacterial growth was determined by withdrawing samples of each culture and spot-plating serial dilutions onto King's B agar (King et al. 1954) in tandem with promoter activity assays. Colonies were counted after 48 h of incubation at 28° C.
Background: Flow cytometry measures light scatter and fluorescence of single cells or particles in a stream.

Test [1] concerns Pseudomonas syringae pv. tomato DC3000 (HR elicitation). The experiment in a line: Hypersensitive response (HR) assay in tobacco leaves. Format: in vivo. The following applies: Nicotiana tabacum cv. Xanthi, 18 hours post-infiltration. As for the experimental part: Bacterial cells from overnight cultures grown in KB broth were resuspended in sterile dH2O. Cell suspensions were mixed with chemicals and allowed to sit for 30 minutes before plant inoculation. Nicotiana tabacum cv. Xanthi plants were used for HR assays. Tobacco leaves were pressure infiltrated by use of a needless syringe (Fu et al. 2006) with 1×10^8 cells/ml and 25 μM, 50 μM, 100 μM, 250 μM, or 500 μM TCA. Plants were photographed and assessed for macroscopic tissue collapse indicative of HR 18 h post-inoculation.
In DC3000, mutations in genes which encode components of the T3SS result in the inability to elicit HR in non-hosts (Collmer et al. 2000). Since TCA represses expression of hrpA (a major component of the T3SS) in vitro, the ability of TCA to suppress HR in planta was examined. DC3000 (OD600=0.1) with 25 μM, 50 μM, 100 μM, 250 μM, or 500 μM of TCA in DMSO was injected into leaves of tobacco (Nicotiana tabacum cv. Xanthi). Concentrations of DMSO which correspond to similar amounts of TCA were also injected into the tobacco plants as negative controls. Tobacco leaves were assessed for HR symptoms 18 hours post-infiltration. No visible signs of tissue damage or HR were observed when DMSO or TCA was separately infiltrated into the tobacco leaves (data not shown). […] This effect is most likely due to lack of a functional T3SS.

For the next test, the system named is hrpW mRNA. Kind of test: Real-time PCR of hrpW in DC3000. Format: cell-based, Pseudomonas syringae pv. tomato DC3000. The following applies: HIM supplemented with 250 μM, 9 h. As for the experimental part:
DC3000 was cultured in KB medium overnight at 28° C. and subcultured in HIM medium supplemented with DMSO or with 250 μM TCA for 9 h. Total bacterial RNA was isolated using RNeasy Mini Kit (QIAGEN, Valencia, Calif.) and treated with Turbo DNA-free DNase kit (Ambion, Austin, Tex.). cDNA was synthesized using iScript cDNA Synthesis Kit (Bio-Rad, Hercules, Calif.) from 0.8 μg of total RNA. The Real Master Mix SYBR ROX (5 PRIME, Gaithersburg, Md.) was used for real-time PCR reactions to quantify the cDNA level of target genes in different samples. Data were collected by the Opticon 2 system (Bio-Rad) and analyzed using Relative Expression Software Tool as described by Pfaffl and associates (Pfaffl et al. 2002). Two housekeeping genes, gyrA (PSPTO1745) and gap1 (PSPTO1287) were used as endogenous controls for data analysis. The PCR efficiencies of the primers are: gyrA, 1.93; gap1, 2.08; and hrpW, 1.93.
(In general: Quantitative PCR measures a nucleic acid by following its amplification.)

The subject of the next test is HrpN protein. Kind of test: HrpN protein expression (FIG. 15). In kind it is cell-based, Dickeya dadantii 3937. The following applies: MM supplemented with 0.1 mM (FIG. 15). The text has this: To further elucidate whether T3SS gene expression is mainly regulated through the HrpX/Y-HrpS-HrpL regulatory pathway, the expression of hrpA and hrpN in wild-type Ech3937 and hrpX (WPP67), hrpY (WPP92), hrpS (WPP90), and hrpL (WPP96) mutants in MM were examined. […] Similar expression of hrpA and hrpN was observed among WPP67, WPP92, WPP90 and WPP96 carrying phrpA and phrpN grown in MM and MM supplemented with PCA. […] Since PCA represses the expression of several T3SS genes such as hrpN, the effect of PCA on protein production of HrpN was further examined.

The next test concerns hrpS mRNA. Kind of test: qRT-PCR relative mRNA level of hrpS. Format: cell-based, Dickeya dadantii 3937. Conditions: 0.1 mM in MM. As for the experimental part: Bacterial strains were grown in MM. Total RNA from the bacterial cells was isolated by using the TRI reagent method (Sigma, Mo.) and treated with Turbo DNA-free DNase kits (Ambion, Tex.) as described (Peng et al., 2006). An iScript cDNA Synthesis Kit (Bio-Rad, CA) was used to synthesize cDNA from 0.5 μg of treated total RNA. The Real Master Mix (Eppendorf, Westbury, N.Y.) was used for qRT-PCR reaction to quantify the cDNA level of target genes in different samples. The rplU was used as the endogenous control for data analysis. qRT-PCR data were analyzed using Relative Expression Software Tool as described (Pfaffl, M. W., Horgan, G. W., and Dempfle, L. (2002) Relative expression software tool (REST) for group-wise comparison and statistical analysis of relative expression results in real-time PCR. Nucleic Acids Res 30:e36.).

For `O=C(O)/C=C/c1ccccc1` [Compound 001, trans-cinnamic acid], the “effect on hrpA promoter activity, in words” value in the test with hrpA promoter (T3SS) (HIM + 25 μM or 50 μM) is “less substantial effect”; in the test with hrpA promoter (T3SS) (HIM + 250 μM and 500 μM), “almost complete repression of hrpA promoter activity”. In addition, the “reduction in hrpA promoter activity” value in the test with hrpA promoter (T3SS) (HIM + 100 μM) came to 3 fold. In addition, the “elicitation of HR by DC3000 in tobacco leaves, in words” value was “unable to completely block HR” in test [1] (infiltrated with 100 μM) and “completely suppressed” in test [1] (infiltrated with 250 μM). For the same compound, the “hrpW mRNA relative expression ratio vs HIM alone” value in the test with hrpW mRNA is on record as 0.07.
Regarding `O=C(O)/C=C/c1ccc(O)cc1` [Compound 004, para-coumaric acid], the “HrpN protein amount compared with MM alone, in words” value with HrpN protein is listed as “a lower amount of HrpN”.
Take `O=C(O)/C=C/c1ccccc1O` [Compound 006, Ortho-coumaric acid]: the “hrpS mRNA compared with MM alone, in words” value in the test on hrpS mRNA was “No significant difference”.

The record behind these values is US9260382B2, “Methods of reducing virulence in bacteria” (priority 2010, dated 2016).
